This is an account of results in patent US20240384268A1, “Oligonucleotides” (Hudson Institute of Medical Research, priority 2021, published 2024).

In the oligonucleotide strings, read from the 5' end, every base follows the letter of its sugar. An asterisk marks phosphorothioate; unmarked linkages are phosphodiester. Other units and linkages are bracketed, terminal groups are in braces. A string of capitals states the bases alone. d = 2'-deoxy (DNA); m = 2'-O-methyl

The series deals with T1, human TLR9 (Homo sapiens, UniProt Q9NR96).
T1 construct: HA; host or cells: 293XL-hTLR9-HA (HEK293)
T1 sequence (Q9NR96 26-1032): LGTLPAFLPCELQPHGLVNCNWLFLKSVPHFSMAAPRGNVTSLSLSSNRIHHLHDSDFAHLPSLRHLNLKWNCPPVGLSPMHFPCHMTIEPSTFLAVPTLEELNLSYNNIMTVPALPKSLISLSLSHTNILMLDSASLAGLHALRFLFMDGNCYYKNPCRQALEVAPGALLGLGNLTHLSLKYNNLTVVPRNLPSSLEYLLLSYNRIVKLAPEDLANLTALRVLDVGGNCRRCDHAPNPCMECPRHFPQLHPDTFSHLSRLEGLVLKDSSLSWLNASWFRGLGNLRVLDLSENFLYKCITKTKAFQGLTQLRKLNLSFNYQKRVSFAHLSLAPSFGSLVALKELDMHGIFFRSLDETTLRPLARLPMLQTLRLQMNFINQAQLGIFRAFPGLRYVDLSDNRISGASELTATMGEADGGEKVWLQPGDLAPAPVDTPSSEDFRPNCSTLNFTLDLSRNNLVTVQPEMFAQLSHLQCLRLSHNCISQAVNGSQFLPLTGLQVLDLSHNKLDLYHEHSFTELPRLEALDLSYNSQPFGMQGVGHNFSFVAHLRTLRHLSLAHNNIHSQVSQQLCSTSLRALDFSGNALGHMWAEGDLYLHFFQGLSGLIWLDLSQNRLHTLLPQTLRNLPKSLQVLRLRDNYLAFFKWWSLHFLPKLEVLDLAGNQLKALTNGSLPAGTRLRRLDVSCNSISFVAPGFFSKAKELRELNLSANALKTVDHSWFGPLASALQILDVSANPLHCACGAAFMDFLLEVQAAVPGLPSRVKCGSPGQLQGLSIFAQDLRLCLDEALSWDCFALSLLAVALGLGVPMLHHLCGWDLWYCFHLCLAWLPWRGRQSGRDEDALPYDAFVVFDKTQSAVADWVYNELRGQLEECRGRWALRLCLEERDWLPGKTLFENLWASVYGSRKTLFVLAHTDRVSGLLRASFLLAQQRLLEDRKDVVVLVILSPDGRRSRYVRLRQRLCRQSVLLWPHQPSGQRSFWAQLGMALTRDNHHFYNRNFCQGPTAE
The series can be described thus: HEK-TLR9 NF-κB-luciferase reporter, ODN2006 stimulation. In kind it is cell-based. The following applies: for TLR9-500 nM: averaged NF-κB-Luciferase relative to ODN2006: HEK-TLR9, 500 nM ASO 45 min, then 200 nM ODN2006 overnight, percentage of ODN2006 only; for TLR9 100 nM: MOE-modified ASO at 100 nM; for TLR9 100 nM / TLR9 500 nM: averaged NF-κB-Luciferase relative to ODN2006 condition; for TLR9 500 nM: MOE-modified ASO at 500 nM. (In general: A reporter such as luciferase makes a cellular process visible.)

As to “mU*mU*mA*mA*mA*T*A*A*T*C*T*A*G*T*T*mU*mG*mA*mA*mG (UUAAATAATCTAGTTUGAAG; sugars from the 5' end m5 d10 m5, all phosphorothioate, methylation of C not given here) [[CDKN2B-AS1]132]”, the “TLR9-500 nM: averaged NF-κB-Luciferase relative to ODN2006” value is listed as 98.18%.

On to “mU*mC*mU*mG*mG*T*C*C*C*A*T*C*C*C*T*mU*mC*mU*mG*mC (UCUGGTCCCATCCCTUCUGC; antisense; sugars from the 5' end m5 d10 m5, all phosphorothioate, methylation of C not given here) [[LINC-PINT]106]”, for which the “TLR9-500 nM: averaged NF-κB-Luciferase relative to ODN2006” value is reported as 56.60%. On to “mA*mG*mC*mC*mG*A*A*C*A*G*A*A*G*G*A*mG*mC*mG*mU*mC (AGCCGAACAGAAGGAGCGUC; sugars from the 5' end m5 d10 m5, all phosphorothioate, methylation of C not given here) [[LINC-PINT]587 KL]”, for which the “TLR9-500 nM: averaged NF-κB-Luciferase relative to ODN2006” value came to 57.46%. Consider “mA*mA*mU*mU*mU*A*A*A*G*C*A*T*G*A*A*mU*mA*mU*mU*mA (mA*mA*mU*mU*mU*dA*dA*dA*dG*dC*dA*dT*dG*dA*dA*mU*mA*mU*mU*mA) [[CDKN2B-AS1]645]”, for which the “TLR9-500 nM: averaged NF-κB-Luciferase relative to ODN2006” value is listed as 53.26%. Same read-out and setting: for “mG*mA*mU*mU*mA*A*A*A*C*A*G*A*T*T*A*mA*mU*mA*mC*mA (mG*mA*mU*mU*mA*dA*dA*dA*dC*dA*dG*dA*dT*dT*dA*mA*mU*mA*mC*mA) [[CDKN2B-AS1]1773]” the value was 44.97%; for “mU*mG*mA*mC*mA*T*T*T*C*G*T*G*G*C*T*mC*mC*mU*mA*mC (mU*mG*mA*mC*mA*dT*dT*dT*dC*dG*dT*dG*dG*dC*dT*mC*mC*mU*mA*mC; antisense) [[LINC-PINT]523 KL]”, 118.29%.

For “TCCGGCCTCGGAAGCTCTCT (antisense; 2'-MOE modified, pattern not given here) [MB21D1-168 MOE]”, the “TLR9 100 nM” value turned out to be 0.242 and the “TLR9 500 nM” value is listed as 0.000. Turning to “mC*mC*mU*mA*mG*A*A*A*G*A*A*G*C*A*A*mA*mG*mA*mU*mU (mC*mC*mU*mA*mG*dA*dA*dA*dG*dA*dA*dG*dC*dA*dA*mA*mG*mA*mU*mU) [[CDKN2B-AS1]1522]”, the “TLR9-500 nM: averaged NF-κB-Luciferase relative to ODN2006” value was 42.44%. On the same count and under the same terms, for “mA*mA*mU*mA*mU*C*T*G*C*T*G*C*C*C*A*mC*mC*mU*mU*mC (mA*mA*mU*mA*mU*dC*dT*dG*dC*dT*dG*dC*dC*dC*dA*mC*mC*mU*mU*mC; antisense) [[CDKN2B-AS1]832]” the value was 70.72%. “ATGCCATCCACTTGATAGGC (antisense; 2'-MOE modified, pattern not given here) [EGFR-2874 MOE]”: the “TLR9 100 nM” value is reported as 0.712 and the “TLR9 500 nM” value was determined as 0.589. “mG*mA*mU*mG*mG*T*T*C*C*A*G*T*C*C*C*mU*mC*mU*mU*mC (GAUGGTTCCAGTCCCUCUUC; antisense; sugars from the 5' end m5 d10 m5, all phosphorothioate, methylation of C not given here) [[LINC-PINT]1497.1]”: the “TLR9-500 nM: averaged NF-κB-Luciferase relative to ODN2006” value is given as 80.47%. Same read-out and setting: for “mU*mU*mG*mG*mC*C*T*G*T*G*G*A*T*G*C*mU*mU*mU*mG*mU (mU*mU*mG*mG*mC*dC*dT*dG*dT*dG*dG*dA*dT*dG*dC*mU*mU*mU*mG*mU) [[LINC-PINT]2673.1]” the value was 40.71%. Consider “GCTGACAAAGATTCACTGGT (antisense; 2'-MOE modified, pattern not given here) [HPRT-1353 MOE]”, for which the “TLR9 100 nM” value was found to be 0.653 and the “TLR9 500 nM” value was 0.654.

As to “mU*mG*mU*mU*mU*C*C*C*C*G*G*A*G*A*G*mC*mA*mA*mU*mG (UGUUUCCCCGGAGAGCAAUG; antisense; sugars from the 5' end m5 d10 m5, all phosphorothioate, methylation of C not given here) [[LINC-PINT]501 KL]”, the “TLR9-500 nM: averaged NF-κB-Luciferase relative to ODN2006” value is 71.47%. On the same count and under the same terms, for “mU*mC*mU*mC*mU*C*T*G*G*T*C*C*C*A*T*mC*mC*mC*mU*mU (mU*mC*mU*mC*mU*dC*dT*dG*dG*dT*dC*dC*dC*dA*dT*mC*mC*mC*mU*mU; antisense) [[LINC-PINT]110]” the value was 74.25%; for “mU*mC*mC*mC*mA*A*C*T*C*T*T*C*T*A*A*mC*mU*mC*mG*mU (mU*mC*mC*mC*mA*dA*dC*dT*dC*dT*dT*dC*dT*dA*dA*mC*mU*mC*mG*mU; antisense) [[LINC-PINT]1284 KL]”, 86.73%. Consider “GCCCATCCATGAGGTCCTGG (antisense; 2'-MOE modified, pattern not given here) [CTNN2B-2545 MOE]”, for which the “TLR9 100 nM” value is recorded as 0.324 and the “TLR9 500 nM” value worked out at 0.175. Consider “mC*mA*mU*mC*mC*C*T*T*C*T*G*C*T*G*C*mC*mA*mA*mG*mC (mC*mA*mU*mC*mC*dC*dT*dT*dC*dT*dG*dC*dT*dG*dC*mC*mA*mA*mG*mC; antisense) [[LINC-PINT]98]”, for which the “TLR9-500 nM: averaged NF-κB-Luciferase relative to ODN2006” value is given as 65.09%.

With “mC*mC*mU*mU*mC*T*C*T*C*T*G*GT*C*C*mC*mA*mU*mC*mC (CCUUCTCTCTGGTCCCAUCC; antisense; chemistry not fully specified) [[LINC-PINT]113]”, the “TLR9-500 nM: averaged NF-κB-Luciferase relative to ODN2006” value amounted to 55.47%.

Consider “mG*mU*mC*mC*mC*A*G*G*C*C*T*C*C*A*G*mU*mG*mU*mC*mU (mG*mU*mC*mC*mC*dA*dG*dG*dC*dC*dT*dC*dC*dA*dG*mU*mG*mU*mC*mU; antisense) [[CDKN2B-AS1]2223]”, for which the “TLR9-500 nM: averaged NF-κB-Luciferase relative to ODN2006” value came to 67.61%.
